From ChEMBL document CHEMBL4507287, “Data for DCP probe MRL-650” (2021)

Legend:
[1] = molecular target: Dual specificity protein kinase CLK2 (Homo sapiens) (UniProt P49760); conditions: Compound concentration 1000.0 nM
[2] = molecular target: Serine/threonine-protein kinase TBK1 (Homo sapiens) (UniProt Q9UHD2); conditions: Compound concentration 1000.0 nM
[3] = molecular target: Citron Rho-interacting kinase (Homo sapiens) (UniProt O14578); conditions: Compound concentration 1000.0 nM
[4] = molecular target: Phosphatidylinositol 4-kinase beta (Homo sapiens) (UniProt Q9UBF8); conditions: Compound concentration 1000.0 nM
[5] = molecular target: Calcium/calmodulin-dependent protein kinase type 1D (Homo sapiens) (UniProt Q8IU85); conditions: Compound concentration 1000.0 nM
Sequence of Calcium/calmodulin-dependent protein kinase type 1D (Homo sapiens) (Q8IU85 whole entry, looked up): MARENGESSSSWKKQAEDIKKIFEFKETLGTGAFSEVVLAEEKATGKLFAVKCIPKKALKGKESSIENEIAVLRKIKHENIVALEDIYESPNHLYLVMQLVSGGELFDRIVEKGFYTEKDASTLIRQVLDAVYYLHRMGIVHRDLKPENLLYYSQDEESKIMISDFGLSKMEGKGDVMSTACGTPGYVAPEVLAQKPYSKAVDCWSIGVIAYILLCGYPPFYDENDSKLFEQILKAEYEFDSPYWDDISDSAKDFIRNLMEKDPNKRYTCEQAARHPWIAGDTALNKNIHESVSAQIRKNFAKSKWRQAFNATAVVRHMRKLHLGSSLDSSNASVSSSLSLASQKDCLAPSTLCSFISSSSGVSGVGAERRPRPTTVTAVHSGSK

[6] = molecular target: Dual specificity tyrosine-phosphorylation-regulated kinase 1B (Homo sapiens) (UniProt Q9Y463); conditions: Compound concentration 1000.0 nM
Sequence of Dual specificity tyrosine-phosphorylation-regulated kinase 1B (Homo sapiens) (Q9Y463 whole entry, looked up): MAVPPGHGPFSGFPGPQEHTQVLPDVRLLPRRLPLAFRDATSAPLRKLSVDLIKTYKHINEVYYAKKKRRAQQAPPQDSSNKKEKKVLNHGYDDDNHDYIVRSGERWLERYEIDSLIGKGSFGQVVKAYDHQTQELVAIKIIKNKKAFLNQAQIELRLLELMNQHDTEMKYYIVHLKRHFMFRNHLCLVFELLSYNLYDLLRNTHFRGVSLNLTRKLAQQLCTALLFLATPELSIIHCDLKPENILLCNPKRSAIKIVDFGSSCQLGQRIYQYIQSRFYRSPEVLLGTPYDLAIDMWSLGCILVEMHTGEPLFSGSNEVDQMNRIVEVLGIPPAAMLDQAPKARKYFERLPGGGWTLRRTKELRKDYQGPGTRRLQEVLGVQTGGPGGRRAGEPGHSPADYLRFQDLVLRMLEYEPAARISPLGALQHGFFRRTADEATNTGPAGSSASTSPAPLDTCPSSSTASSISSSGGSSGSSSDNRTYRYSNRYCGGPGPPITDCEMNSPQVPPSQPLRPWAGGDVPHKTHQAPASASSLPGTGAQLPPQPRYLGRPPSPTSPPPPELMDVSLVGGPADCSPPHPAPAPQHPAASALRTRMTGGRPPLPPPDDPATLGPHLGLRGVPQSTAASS

[7] = molecular target: Mitogen-activated protein kinase 12 (Homo sapiens) (UniProt P53778); conditions: Compound concentration 1000.0 nM
[8] = molecular target: Mitogen-activated protein kinase kinase kinase 13 (Homo sapiens) (UniProt O43283); conditions: Compound concentration 1000.0 nM
[9] = test system: Receptor-type tyrosine-protein kinase FLT3 (Homo sapiens), P36888 [D835Y]; conditions: Compound concentration 1000.0 nM
[10] = molecular target: Serine/threonine-protein kinase/endoribonuclease IRE1 (Homo sapiens) (UniProt O75460); conditions: Compound concentration 1000.0 nM
[11] = molecular target: Phosphatidylinositol 3-kinase C2 domain-containing subunit gamma (Homo sapiens) (UniProt O75747); conditions: Compound concentration 1000.0 nM
[12] = test system: Receptor-type tyrosine-protein kinase FLT3 (Homo sapiens), P36888 [R834Q]; conditions: Compound concentration 1000.0 nM
[13] = molecular target: Serine/threonine-protein kinase 32B (Homo sapiens) (UniProt Q9NY57); conditions: Compound concentration 1000.0 nM
[14] = molecular target: Muscarinic acetylcholine receptor M5 (Homo sapiens) (UniProt P08912); conditions: Compound concentration 10.0 uM
[15] = test system: Epidermal growth factor receptor (Homo sapiens), P00533 [L861Q]; conditions: Compound concentration 1000.0 nM
[16] = molecular target: RAC-alpha serine/threonine-protein kinase (Homo sapiens) (UniProt P31749); conditions: Compound concentration 1000.0 nM
[17] = molecular target: Cyclin-dependent kinase-like 3 (Homo sapiens) (UniProt Q8IVW4); conditions: Compound concentration 1000.0 nM
[18] = molecular target: Dual specificity tyrosine-phosphorylation-regulated kinase 2 (Homo sapiens) (UniProt Q92630); conditions: Compound concentration 1000.0 nM
Sequence of Dual specificity tyrosine-phosphorylation-regulated kinase 2 (Homo sapiens) (Q92630 whole entry): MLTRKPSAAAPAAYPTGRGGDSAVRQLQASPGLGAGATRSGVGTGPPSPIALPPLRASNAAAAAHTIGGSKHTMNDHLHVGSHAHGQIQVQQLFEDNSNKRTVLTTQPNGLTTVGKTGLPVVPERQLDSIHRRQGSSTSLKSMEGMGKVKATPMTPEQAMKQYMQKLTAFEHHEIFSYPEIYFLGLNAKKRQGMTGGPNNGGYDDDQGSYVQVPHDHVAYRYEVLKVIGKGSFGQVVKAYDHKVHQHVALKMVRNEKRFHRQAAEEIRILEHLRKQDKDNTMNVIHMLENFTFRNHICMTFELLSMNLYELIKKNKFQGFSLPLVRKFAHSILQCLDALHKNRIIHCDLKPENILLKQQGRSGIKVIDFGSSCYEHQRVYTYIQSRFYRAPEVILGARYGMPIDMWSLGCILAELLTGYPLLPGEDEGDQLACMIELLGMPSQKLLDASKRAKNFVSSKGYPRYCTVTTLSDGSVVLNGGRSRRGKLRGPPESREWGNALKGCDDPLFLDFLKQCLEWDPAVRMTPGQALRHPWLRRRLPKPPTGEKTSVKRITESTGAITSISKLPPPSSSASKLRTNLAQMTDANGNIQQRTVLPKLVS

[19] = molecular target: Cyclin-dependent kinase 17 (Homo sapiens) (UniProt Q00537); conditions: Compound concentration 1000.0 nM
Sequence of Cyclin-dependent kinase 17 (Homo sapiens) (Q00537 whole entry, looked up): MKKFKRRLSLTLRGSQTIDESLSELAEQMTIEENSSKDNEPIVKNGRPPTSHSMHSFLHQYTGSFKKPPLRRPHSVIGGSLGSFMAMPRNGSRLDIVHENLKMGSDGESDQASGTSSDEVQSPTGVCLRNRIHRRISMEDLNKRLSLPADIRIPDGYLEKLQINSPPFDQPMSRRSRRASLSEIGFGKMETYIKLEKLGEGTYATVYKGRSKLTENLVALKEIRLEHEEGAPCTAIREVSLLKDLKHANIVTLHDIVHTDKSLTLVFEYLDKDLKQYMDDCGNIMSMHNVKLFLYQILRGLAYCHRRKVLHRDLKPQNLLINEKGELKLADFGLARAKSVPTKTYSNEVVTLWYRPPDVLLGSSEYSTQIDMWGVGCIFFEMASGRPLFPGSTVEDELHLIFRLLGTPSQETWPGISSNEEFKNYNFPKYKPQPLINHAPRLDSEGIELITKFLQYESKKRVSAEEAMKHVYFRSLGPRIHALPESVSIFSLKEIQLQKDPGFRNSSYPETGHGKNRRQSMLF

[20] = molecular target: Ephrin type-A receptor 1 (Homo sapiens) (UniProt P21709); conditions: Compound concentration 1000.0 nM
[21] = molecular target: Interferon-induced, double-stranded RNA-activated protein kinase (Homo sapiens) (UniProt P19525); conditions: Compound concentration 1000.0 nM
[22] = molecular target: Serine/threonine-protein kinase SBK1 (Homo sapiens) (UniProt Q52WX2); conditions: Compound concentration 1000.0 nM
[23] = molecular target: Muscle, skeletal receptor tyrosine-protein kinase (Homo sapiens) (UniProt O15146); conditions: Compound concentration 1000.0 nM
[24] = molecular target: Myotonin-protein kinase (Homo sapiens) (UniProt Q09013); conditions: Compound concentration 1000.0 nM
[25] = molecular target: Casein kinase I isoform alpha-like (Homo sapiens) (UniProt Q8N752); conditions: Compound concentration 1000.0 nM
[26] = molecular target: Cyclin-dependent kinase 18 (Homo sapiens) (UniProt Q07002); conditions: Compound concentration 1000.0 nM
[27] = molecular target: Activin receptor type-1 (Homo sapiens) (UniProt Q04771); conditions: Compound concentration 1000.0 nM
[28] = molecular target: TGF-beta receptor type-1 (Homo sapiens) (UniProt P36897); conditions: Compound concentration 1000.0 nM
Sequence of TGF-beta receptor type-1 (Homo sapiens) (P36897 whole entry): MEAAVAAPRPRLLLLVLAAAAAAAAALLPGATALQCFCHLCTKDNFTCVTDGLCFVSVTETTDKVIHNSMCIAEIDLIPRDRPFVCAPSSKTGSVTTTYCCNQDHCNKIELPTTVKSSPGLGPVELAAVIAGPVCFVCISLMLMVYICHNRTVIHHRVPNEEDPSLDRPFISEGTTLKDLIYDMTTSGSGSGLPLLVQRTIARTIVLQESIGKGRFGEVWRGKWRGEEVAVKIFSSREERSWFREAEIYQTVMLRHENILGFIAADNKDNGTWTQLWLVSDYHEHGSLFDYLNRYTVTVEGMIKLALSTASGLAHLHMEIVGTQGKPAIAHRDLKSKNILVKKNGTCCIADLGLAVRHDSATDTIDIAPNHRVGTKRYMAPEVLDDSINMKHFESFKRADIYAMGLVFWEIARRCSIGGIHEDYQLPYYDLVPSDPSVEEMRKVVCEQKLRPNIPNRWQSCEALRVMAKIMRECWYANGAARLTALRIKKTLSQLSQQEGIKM

[29] = molecular target: Serine/threonine-protein kinase NLK (Homo sapiens) (UniProt Q9UBE8); conditions: Compound concentration 1000.0 nM
[30] = molecular target: Serine/threonine-protein kinase RIO3 (Homo sapiens) (UniProt O14730); conditions: Compound concentration 1000.0 nM
Sequence of Serine/threonine-protein kinase RIO3 (Homo sapiens) (O14730 whole entry): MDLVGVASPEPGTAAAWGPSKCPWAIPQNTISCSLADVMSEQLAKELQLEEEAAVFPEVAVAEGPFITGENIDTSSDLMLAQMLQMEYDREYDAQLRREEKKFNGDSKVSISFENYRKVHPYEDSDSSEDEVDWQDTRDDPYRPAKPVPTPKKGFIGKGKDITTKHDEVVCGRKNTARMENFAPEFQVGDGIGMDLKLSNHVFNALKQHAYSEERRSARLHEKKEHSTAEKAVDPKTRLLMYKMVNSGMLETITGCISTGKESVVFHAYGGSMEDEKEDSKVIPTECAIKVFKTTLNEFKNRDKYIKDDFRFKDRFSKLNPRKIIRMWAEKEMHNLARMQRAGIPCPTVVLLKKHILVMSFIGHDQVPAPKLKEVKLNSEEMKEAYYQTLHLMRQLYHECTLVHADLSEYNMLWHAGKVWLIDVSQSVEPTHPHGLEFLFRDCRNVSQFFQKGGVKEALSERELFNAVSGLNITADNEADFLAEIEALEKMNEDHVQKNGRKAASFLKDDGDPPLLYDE

[31] = molecular target: Fibroblast growth factor receptor 2 (Homo sapiens) (UniProt P21802); conditions: Compound concentration 1000.0 nM
[32] = molecular target: Ephrin type-B receptor 3 (Homo sapiens) (UniProt P54753); conditions: Compound concentration 1000.0 nM
[33] = test system: Serine/threonine-protein kinase B-raf (Homo sapiens), P15056 [V600E]; conditions: Compound concentration 1000.0 nM
[34] = molecular target: Casein kinase I isoform gamma-1 (Homo sapiens) (UniProt Q9HCP0); conditions: Compound concentration 1000.0 nM
[35] = molecular target: Mitogen-activated protein kinase 8 (Homo sapiens) (UniProt P45983); conditions: Compound concentration 1000.0 nM
Sequence of Mitogen-activated protein kinase 8 (Homo sapiens) (P45983 whole entry): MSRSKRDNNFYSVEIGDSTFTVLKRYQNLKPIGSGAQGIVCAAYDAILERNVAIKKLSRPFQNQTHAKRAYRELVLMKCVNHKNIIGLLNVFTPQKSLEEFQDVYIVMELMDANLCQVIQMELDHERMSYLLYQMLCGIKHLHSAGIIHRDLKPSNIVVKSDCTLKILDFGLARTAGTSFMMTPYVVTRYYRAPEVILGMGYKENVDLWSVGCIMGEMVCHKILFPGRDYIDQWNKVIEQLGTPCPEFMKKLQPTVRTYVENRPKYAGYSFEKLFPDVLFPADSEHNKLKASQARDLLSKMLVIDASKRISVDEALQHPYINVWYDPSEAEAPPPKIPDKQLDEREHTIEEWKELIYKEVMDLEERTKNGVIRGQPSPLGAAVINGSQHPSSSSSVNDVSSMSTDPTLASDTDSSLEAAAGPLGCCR

[36] = molecular target: Tyrosine-protein kinase ABL2 (Homo sapiens) (UniProt P42684); conditions: Compound concentration 1000.0 nM
[37] = molecular target: Proto-oncogene tyrosine-protein kinase ROS (Homo sapiens) (UniProt P08922); conditions: Compound concentration 1000.0 nM
[38] = molecular target: Serine/threonine-protein kinase 35 (Homo sapiens) (UniProt Q8TDR2); conditions: Compound concentration 1000.0 nM
[39] = molecular target: Myosin light chain kinase (Homo sapiens) (UniProt Q32MK0); conditions: Compound concentration 1000.0 nM
Sequence of Myosin light chain kinase (Homo sapiens) (Q32MK0 whole entry): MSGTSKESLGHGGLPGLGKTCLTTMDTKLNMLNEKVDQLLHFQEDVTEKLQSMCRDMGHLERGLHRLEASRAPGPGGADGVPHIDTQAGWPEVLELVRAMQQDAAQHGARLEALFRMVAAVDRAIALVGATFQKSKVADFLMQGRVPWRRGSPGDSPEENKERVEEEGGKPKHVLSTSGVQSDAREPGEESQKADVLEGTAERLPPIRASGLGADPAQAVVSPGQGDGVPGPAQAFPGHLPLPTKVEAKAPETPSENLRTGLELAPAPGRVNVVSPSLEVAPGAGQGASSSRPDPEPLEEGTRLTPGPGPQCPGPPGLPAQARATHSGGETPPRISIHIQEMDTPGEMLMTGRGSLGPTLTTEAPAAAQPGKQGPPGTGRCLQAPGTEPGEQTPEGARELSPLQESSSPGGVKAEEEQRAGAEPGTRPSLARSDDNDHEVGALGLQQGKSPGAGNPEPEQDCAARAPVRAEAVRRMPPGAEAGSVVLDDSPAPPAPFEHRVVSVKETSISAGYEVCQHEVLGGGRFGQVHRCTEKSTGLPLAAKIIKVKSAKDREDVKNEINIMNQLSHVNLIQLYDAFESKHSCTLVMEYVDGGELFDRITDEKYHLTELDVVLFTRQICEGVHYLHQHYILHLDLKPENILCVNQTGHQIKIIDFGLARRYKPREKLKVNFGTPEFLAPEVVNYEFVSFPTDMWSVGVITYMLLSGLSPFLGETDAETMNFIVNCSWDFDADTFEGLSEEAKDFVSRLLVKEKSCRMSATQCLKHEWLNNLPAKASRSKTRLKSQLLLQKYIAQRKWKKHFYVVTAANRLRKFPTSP

[40] = molecular target: Tyrosine-protein kinase Tec (Homo sapiens) (UniProt P42680); conditions: Compound concentration 1000.0 nM
[41] = molecular target: Mitogen-activated protein kinase kinase kinase kinase 5 (Homo sapiens) (UniProt Q9Y4K4); conditions: Compound concentration 1000.0 nM
[42] = molecular target: D(3) dopamine receptor (Homo sapiens) (UniProt P35462); conditions: Compound concentration 10.0 uM
Sequence of D(3) dopamine receptor (Homo sapiens) (P35462 whole entry): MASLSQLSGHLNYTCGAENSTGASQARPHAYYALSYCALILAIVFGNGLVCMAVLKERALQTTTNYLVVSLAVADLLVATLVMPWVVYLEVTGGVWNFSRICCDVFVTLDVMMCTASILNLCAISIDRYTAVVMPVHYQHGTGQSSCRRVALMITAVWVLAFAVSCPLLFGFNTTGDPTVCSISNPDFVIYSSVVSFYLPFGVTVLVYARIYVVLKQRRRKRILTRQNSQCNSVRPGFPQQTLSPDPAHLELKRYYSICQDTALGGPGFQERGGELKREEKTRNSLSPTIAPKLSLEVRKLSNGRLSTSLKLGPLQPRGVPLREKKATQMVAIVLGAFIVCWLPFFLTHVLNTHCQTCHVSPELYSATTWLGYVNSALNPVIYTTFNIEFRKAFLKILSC

[43] = molecular target: Tyrosine-protein kinase Lck (Homo sapiens) (UniProt P06239); conditions: Compound concentration 1000.0 nM
[44] = molecular target: Mitogen-activated protein kinase kinase kinase 15 (Homo sapiens) (UniProt Q6ZN16); conditions: Compound concentration 1000.0 nM
[45] = molecular target: NUAK family SNF1-like kinase 1 (Homo sapiens) (UniProt O60285); conditions: Compound concentration 1000.0 nM

CC(=O)c1c(NS(C)(=O)=O)c2cc(-c3ccc(Cl)cc3)c(-c3ccc(Cl)cc3Cl)nc2n(C)c1=O [MRL-CB1-NC]
inactive: residual activity [1] 100% | residual activity [2] 92% | residual activity [3] 96% | residual activity [4] 74% | residual activity [5] 100% | residual activity [6] 100% | residual activity [7] 100% | residual activity [8] 71% | residual activity [9] 95% | residual activity [10] 77% | residual activity [11] 91% | residual activity [12] 100% | residual activity [13] 89% | inhibition [14] -4.92% | residual activity [15] 100% | residual activity [16] 89% | residual activity [17] 100% | residual activity [18] 93% | residual activity [19] 100% | residual activity [20] 100% | residual activity [21] 100% | residual activity [22] 77% | residual activity [23] 99% | residual activity [24] 89% | residual activity [25] 100% | residual activity [26] 100% | residual activity [27] 93% | residual activity [28] 100% | residual activity [29] 72% | residual activity [30] 96% | residual activity [31] 92% | residual activity [32] 100% | residual activity [33] 88% | residual activity [34] 92% | residual activity [35] 63% | residual activity [36] 100% | residual activity [37] 100% | residual activity [38] 100% | residual activity [39] 91% | residual activity [40] 100% | residual activity [41] 100% | inhibition [42] 5.91% | residual activity [43] 100% | residual activity [44] 91% | residual activity [45] 86%

CC(=O)Nc1c(C(C)=O)c(=O)n(C)c2nc(-c3ccc(Cl)cc3Cl)c(-c3ccc(Cl)cc3)cc12 [NAPHTHYRIDINONE]
active: residual activity [6] 35%
inactive: residual activity [1] 100% | residual activity [2] 81% | residual activity [3] 100% | residual activity [4] 100% | residual activity [5] 100% | residual activity [7] 100% | residual activity [8] 100% | residual activity [9] 100% | residual activity [10] 100% | residual activity [11] 63% | residual activity [12] 100% | residual activity [13] 100% | inhibition [14] -4.54% | residual activity [15] 100% | residual activity [16] 100% | residual activity [17] 100% | residual activity [18] 100% | residual activity [19] 100% | residual activity [20] 100% | residual activity [21] 100% | residual activity [22] 80% | residual activity [23] 100% | residual activity [24] 100% | residual activity [25] 100% | residual activity [26] 100% | residual activity [27] 100% | residual activity [28] 82% | residual activity [29] 100% | residual activity [30] 100% | residual activity [31] 100% | residual activity [32] 100% | residual activity [33] 100% | residual activity [34] 100% | residual activity [35] 71% | residual activity [36] 100% | residual activity [37] 99% | residual activity [38] 100% | residual activity [39] 100% | residual activity [40] 100% | residual activity [41] 100% | inhibition [42] 14.3% | residual activity [43] 100% | residual activity [44] 100% | residual activity [45] 100%
